Assay results taken from the kinase profiling compilation of Christmann-Franck et al. (2016).

Experiments:
Experiment in all cases: radiometric filter-binding kinase assay, Kinase HotSpot
Conditions in all cases: compound 0.5 µM; ATP 10 µM
[1] = molecular target: AKT2 (human) (UniProt P31751)
[2] = molecular target: CAMK4 (human) (UniProt Q16566)
[3] = molecular target: CDK3 CCNE1 (human) (UniProt Q00526+P24864)
[4] = molecular target: CDK4 CCND1 (human) (UniProt P24385+P11802)
[5] = molecular target: CDK9 CCNK (human) (UniProt O75909+P50750)
[6] = molecular target: CHEK1 (human) (UniProt O14757)
[7] = molecular target: CSF1R (human) (UniProt P07333)
[8] = molecular target: CSNK1G1 (human) (UniProt Q9HCP0)
[9] = molecular target: CSNK2A2 (human) (UniProt P19784)
[10] = molecular target: EPHA7 (human) (UniProt Q15375)
Chain of EPHA7 (human) (Q15375 whole entry, looked up): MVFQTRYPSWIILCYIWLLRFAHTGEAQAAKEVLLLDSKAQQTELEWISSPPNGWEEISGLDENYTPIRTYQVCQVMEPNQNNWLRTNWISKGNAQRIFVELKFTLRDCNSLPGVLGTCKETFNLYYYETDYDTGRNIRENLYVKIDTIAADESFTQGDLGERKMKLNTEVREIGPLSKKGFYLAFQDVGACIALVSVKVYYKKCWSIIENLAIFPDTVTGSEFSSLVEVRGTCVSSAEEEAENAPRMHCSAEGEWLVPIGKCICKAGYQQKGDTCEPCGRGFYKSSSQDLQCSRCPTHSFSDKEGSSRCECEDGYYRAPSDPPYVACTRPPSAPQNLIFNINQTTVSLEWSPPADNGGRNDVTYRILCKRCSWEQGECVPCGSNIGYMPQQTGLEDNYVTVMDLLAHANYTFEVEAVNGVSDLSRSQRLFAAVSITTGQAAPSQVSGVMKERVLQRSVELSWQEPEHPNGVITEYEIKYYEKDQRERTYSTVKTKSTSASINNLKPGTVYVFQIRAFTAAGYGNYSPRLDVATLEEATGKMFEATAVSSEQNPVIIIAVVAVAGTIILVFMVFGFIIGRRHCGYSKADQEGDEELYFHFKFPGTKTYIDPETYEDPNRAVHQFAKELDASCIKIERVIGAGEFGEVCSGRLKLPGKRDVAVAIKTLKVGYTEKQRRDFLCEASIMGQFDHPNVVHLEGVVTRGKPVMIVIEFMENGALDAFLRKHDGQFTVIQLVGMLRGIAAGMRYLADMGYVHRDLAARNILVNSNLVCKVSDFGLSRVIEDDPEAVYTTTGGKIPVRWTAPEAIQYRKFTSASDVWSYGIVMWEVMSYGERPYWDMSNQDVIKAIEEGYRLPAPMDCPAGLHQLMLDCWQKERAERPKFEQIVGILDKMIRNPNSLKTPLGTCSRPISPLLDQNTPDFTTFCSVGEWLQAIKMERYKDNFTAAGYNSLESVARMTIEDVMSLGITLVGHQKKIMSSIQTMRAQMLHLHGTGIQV

[11] = molecular target: EPHA8 (human) (UniProt P29322)
[12] = molecular target: EPHB3 (human) (UniProt P54753)
[13] = molecular target: EPHB4 (human) (UniProt P54760)
[14] = molecular target: FLT3 (human) (UniProt P36888)
[15] = molecular target: IKBKE (human) (UniProt Q14164)
[16] = molecular target: IRAK4 (human) (UniProt Q9NWZ3)
[17] = molecular target: LRRK2 (human) (UniProt Q5S007)
[18] = molecular target: LTK (human) (UniProt P29376)
[19] = molecular target: MAP3K7 TAB1 (human) (UniProt O43318+Q15750)
Chain of MAP3K7 TAB1 (human) (O43318 whole entry, looked up): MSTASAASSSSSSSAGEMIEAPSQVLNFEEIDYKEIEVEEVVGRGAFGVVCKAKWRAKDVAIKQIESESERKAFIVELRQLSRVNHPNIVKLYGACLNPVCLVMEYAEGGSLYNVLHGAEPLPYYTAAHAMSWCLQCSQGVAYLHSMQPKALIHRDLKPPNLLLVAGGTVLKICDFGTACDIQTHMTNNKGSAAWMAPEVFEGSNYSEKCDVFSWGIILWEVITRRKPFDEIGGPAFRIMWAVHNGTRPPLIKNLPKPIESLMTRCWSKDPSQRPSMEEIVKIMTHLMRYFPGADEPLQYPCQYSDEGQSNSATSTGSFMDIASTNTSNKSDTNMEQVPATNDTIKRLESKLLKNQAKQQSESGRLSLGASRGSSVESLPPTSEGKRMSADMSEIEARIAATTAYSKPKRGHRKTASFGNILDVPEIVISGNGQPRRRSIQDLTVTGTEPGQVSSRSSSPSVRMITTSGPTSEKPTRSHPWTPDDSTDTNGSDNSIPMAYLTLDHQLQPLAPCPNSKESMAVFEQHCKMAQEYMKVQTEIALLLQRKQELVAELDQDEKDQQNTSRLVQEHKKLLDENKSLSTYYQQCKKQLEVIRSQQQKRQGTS
Chain of MAP3K7 TAB1 (human) (Q15750 whole entry, looked up): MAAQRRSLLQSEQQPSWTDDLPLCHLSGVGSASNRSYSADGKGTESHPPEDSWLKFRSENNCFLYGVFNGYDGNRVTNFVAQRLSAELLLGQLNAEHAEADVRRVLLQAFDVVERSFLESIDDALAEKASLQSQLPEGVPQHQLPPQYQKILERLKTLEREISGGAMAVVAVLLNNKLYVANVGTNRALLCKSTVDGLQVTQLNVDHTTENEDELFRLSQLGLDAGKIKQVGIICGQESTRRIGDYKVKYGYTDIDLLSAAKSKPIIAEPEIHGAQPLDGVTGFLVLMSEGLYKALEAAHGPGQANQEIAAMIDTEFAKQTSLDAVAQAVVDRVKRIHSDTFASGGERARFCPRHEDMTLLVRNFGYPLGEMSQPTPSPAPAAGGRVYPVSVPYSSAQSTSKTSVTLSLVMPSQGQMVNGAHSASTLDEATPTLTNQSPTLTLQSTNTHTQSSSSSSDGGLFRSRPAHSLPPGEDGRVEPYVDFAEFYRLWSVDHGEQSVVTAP

[20] = molecular target: MAPK9 (human) (UniProt P45984)
[21] = test system: MKNK1 (human), Q9BUB5 [T385D; 165-205 del]
Chain of MKNK1 (human), Q9BUB5 [T385D; 165-205 del] (Q9BUB5 whole entry, looked up, stated change not applied): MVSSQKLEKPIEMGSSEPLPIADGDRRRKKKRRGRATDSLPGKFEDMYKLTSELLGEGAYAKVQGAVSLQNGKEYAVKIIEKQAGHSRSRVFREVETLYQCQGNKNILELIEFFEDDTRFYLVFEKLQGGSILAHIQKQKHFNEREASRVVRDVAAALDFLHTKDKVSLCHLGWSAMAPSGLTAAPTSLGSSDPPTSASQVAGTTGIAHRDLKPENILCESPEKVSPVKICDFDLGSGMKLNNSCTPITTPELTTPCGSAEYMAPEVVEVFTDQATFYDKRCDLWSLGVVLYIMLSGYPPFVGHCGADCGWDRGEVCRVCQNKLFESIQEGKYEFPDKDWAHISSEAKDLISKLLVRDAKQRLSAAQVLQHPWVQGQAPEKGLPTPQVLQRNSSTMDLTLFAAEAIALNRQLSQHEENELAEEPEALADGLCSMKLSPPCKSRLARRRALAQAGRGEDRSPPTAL

[22] = molecular target: NEK1 (human) (UniProt Q96PY6)
[23] = molecular target: NEK9 (human) (UniProt Q8TD19)
[24] = molecular target: NTRK1 (human) (UniProt P04629)
[25] = molecular target: PAK2 (human) (UniProt Q13177)
[26] = molecular target: PHKG2 (human) (UniProt P15735)
[27] = molecular target: PIM1 (human) (UniProt P11309)
[28] = molecular target: PKN2 (human) (UniProt Q16513)
[29] = molecular target: PRKACA (human) (UniProt P17612)
[30] = molecular target: PRKCE (human) (UniProt Q02156)
[31] = molecular target: PRKD3 (human) (UniProt O94806)
Chain of PRKD3 (human) (O94806 whole entry, looked up): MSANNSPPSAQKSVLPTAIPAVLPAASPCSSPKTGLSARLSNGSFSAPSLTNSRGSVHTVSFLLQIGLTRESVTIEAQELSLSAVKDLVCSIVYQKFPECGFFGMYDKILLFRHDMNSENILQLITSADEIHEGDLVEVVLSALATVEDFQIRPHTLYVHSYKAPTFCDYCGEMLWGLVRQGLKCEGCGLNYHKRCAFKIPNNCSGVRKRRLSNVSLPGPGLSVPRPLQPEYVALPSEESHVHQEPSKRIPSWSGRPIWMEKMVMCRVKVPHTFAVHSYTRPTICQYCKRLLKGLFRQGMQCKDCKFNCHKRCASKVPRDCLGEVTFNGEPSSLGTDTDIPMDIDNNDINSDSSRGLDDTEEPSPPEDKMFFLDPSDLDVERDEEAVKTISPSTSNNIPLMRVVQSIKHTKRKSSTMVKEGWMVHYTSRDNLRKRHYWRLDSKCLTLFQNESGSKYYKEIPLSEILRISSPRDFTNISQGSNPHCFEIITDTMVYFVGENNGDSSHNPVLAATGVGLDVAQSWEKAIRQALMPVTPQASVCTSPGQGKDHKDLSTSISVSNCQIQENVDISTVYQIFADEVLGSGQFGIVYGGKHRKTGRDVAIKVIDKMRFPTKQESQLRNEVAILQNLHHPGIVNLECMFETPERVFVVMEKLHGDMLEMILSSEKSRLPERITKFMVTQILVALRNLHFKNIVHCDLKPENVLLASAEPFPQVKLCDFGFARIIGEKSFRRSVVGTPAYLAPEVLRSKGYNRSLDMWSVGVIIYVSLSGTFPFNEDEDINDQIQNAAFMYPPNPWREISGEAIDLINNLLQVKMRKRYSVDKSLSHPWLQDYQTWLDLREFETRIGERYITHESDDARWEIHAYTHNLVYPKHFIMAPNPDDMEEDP

[32] = molecular target: PTK6 (human) (UniProt Q13882)
Chain of PTK6 (human) (Q13882 whole entry, looked up): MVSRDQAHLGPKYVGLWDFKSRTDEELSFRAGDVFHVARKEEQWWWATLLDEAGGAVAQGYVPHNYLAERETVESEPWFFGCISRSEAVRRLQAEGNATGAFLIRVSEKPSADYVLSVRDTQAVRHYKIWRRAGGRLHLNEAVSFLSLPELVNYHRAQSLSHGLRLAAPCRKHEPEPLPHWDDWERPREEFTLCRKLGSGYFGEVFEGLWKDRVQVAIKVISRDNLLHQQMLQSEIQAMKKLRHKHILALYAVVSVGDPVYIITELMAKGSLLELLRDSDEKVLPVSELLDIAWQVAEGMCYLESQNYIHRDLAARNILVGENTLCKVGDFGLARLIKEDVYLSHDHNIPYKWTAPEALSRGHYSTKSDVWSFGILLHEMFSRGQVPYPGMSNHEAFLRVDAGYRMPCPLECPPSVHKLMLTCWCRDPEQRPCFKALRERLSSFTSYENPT

[33] = molecular target: STK16 (human) (UniProt O75716)
[34] = molecular target: STK3 (human) (UniProt Q13188)
[35] = molecular target: TSSK1B (human) (UniProt Q9BXA7)
[36] = molecular target: ULK2 (human) (UniProt Q8IYT8)
Chain of ULK2 (human) (Q8IYT8 whole entry, looked up): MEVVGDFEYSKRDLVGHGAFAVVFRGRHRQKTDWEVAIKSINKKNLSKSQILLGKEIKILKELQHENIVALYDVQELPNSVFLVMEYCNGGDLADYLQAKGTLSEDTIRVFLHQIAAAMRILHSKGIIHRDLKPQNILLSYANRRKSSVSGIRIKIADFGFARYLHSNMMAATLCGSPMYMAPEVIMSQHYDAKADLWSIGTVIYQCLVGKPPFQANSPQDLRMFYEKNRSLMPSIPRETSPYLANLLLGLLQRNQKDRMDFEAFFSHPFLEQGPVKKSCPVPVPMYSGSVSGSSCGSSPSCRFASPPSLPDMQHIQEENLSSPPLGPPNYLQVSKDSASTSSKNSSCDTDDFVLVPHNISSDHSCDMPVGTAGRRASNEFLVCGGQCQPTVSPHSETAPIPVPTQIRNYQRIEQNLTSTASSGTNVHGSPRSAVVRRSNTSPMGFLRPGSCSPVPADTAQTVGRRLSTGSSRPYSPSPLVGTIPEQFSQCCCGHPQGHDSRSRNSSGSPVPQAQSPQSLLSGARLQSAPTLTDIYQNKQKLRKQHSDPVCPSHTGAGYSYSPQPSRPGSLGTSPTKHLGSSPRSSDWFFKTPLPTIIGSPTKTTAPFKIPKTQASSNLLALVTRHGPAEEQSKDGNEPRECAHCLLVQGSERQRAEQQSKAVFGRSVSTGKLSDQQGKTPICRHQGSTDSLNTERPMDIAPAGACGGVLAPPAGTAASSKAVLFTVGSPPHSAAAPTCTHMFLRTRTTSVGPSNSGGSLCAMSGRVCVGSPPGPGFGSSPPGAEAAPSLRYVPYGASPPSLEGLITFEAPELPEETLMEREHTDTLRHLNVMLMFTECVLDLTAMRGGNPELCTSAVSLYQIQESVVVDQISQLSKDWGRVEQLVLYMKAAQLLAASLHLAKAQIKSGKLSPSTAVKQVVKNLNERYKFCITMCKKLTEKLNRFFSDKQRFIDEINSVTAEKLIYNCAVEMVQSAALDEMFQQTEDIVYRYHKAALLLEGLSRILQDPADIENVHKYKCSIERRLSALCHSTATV

[37] = molecular target: WEE1 (human) (UniProt P30291)
[38] = molecular target: WNK3 (human) (UniProt Q9BYP7)

Compound | residual activity [1] [%] | residual activity [2] [%] | residual activity [3] [%] | residual activity [4] [%] | residual activity [5] [%] | residual activity [6] [%] | residual activity [7] [%] | residual activity [8] [%] | residual activity [9] [%] | residual activity [10] [%] | residual activity [11] [%] | residual activity [12] [%] | residual activity [13] [%] | residual activity [14] [%] | residual activity [15] [%] | residual activity [16] [%] | residual activity [17] [%] | residual activity [18] [%] | residual activity [19] [%] | residual activity [20] [%] | other results
COc1cc2ncnc(Nc3ccc(OCc4ccccc4)cc3)c2cc1OC | 101 | 101 | 96.3 | 99.2 | 103 | 101 | 97.8 | 90.6 | 95.3 | 97 | 102 | 90 | 94.6 | 56.4 | 99.7 | 119 | 92.2 | 98.6 | 101 | 106 | residual activity [21]: 101%; residual activity [22]: 104%; residual activity [23]: 104%; residual activity [24]: 97.1%; residual activity [25]: 102%; residual activity [26]: 97.4%; residual activity [27]: 102%; residual activity [28]: 94.1%; residual activity [29]: 101%; residual activity [30]: 99.4%; residual activity [31]: 95.3%; residual activity [32]: 37.9%; residual activity [33]: 106%; residual activity [34]: 97.6%; residual activity [35]: 106%; residual activity [36]: 97%; residual activity [37]: 94.7%; residual activity [38]: 90.8%
COc1ccc(C(=O)Nc2sc3c(c2C(N)=O)CCCC3)cc1OC | 97 | 95.7 | 104 | 95.9 | 85.7 | 112 | 90.2 | 90.1 | 104 | 96.2 | 114 | 92.4 | 93.9 | 42 | 106 | 94.8 | 87.4 | 40.5 | 101 | 118 | residual activity [21]: 98.2%; residual activity [22]: 89.8%; residual activity [23]: 94.6%; residual activity [24]: 104%; residual activity [25]: 99.1%; residual activity [26]: 106%; residual activity [27]: 98.9%; residual activity [28]: 98.5%; residual activity [29]: 102%; residual activity [30]: 95%; residual activity [31]: 103%; residual activity [32]: 97.8%; residual activity [33]: 106%; residual activity [34]: 99.6%; residual activity [35]: 115%; residual activity [36]: 105%; residual activity [37]: 92.3%; residual activity [38]: 96.4%
O=C(c1cc2cc(O)ccc2[nH]1)c1cc2cc(O)ccc2[nH]1 | 104 | 96.5 | 85.2 | 91.5 | 49.5 | 82.5 | 97.7 | 93.1 | 78.8 | 101 | 92.9 | 92.3 | 89.3 | 3.53 | 81.6 | 85.9 | 87.2 | 91.6 | 79.5 | 116 | residual activity [21]: 83.6%; residual activity [22]: 93.4%; residual activity [23]: 93.6%; residual activity [24]: 57.2%; residual activity [25]: 97%; residual activity [26]: 105%; residual activity [27]: 76.1%; residual activity [28]: 97.1%; residual activity [29]: 107%; residual activity [30]: 119%; residual activity [31]: 54.9%; residual activity [32]: 91.9%; residual activity [33]: 54.6%; residual activity [34]: 41.4%; residual activity [35]: 96.4%; residual activity [36]: 94.5%; residual activity [37]: 90.6%; residual activity [38]: 74.6%
